Assay [1] concerns the target T1, CDK4 (Homo sapiens, UniProt P11802).
T1 construct: endogenous in cells; host or cells: C33A
Nature of the assay: CDK4 Degradation Assay, Western blotting. The assay is classed as cell-based. As to conditions: for CDK4 degradation, in words: C33A cells, immunoblot. On the procedure:
(§1) C33A cells were purchased from American Type Culture Collection (ATCC) and were cultured in Dulbecco's Modified Eagle Medium (DMEM) containing 10% (v/v) fetal bovine serum (FBS) and maintained at 37° C. with 5% CO2. 22RV1 cells were purchased from the ATCC and were cultured in RPMI-1640 Medium containing 10% (v/v) FBS and maintained at 37° C. with 5% CO2. HEK293T cells were obtained from the UC Berkeley Cell Culture Facility and were cultured in DMEM containing 10% (v/v) FBS and maintained at 37° C. with 5% CO2. K562 cells were obtained from the UC Berkeley Cell Culture Facility and were cultured in Iscove's Modified Dulbecco's Medium (IMDM) containing 10% (v/v) FBS and maintained at 37° C. with 5% CO2. MV-4-11 cells were obtained from the ATCC and were cultured in IMDM containing 10% (v/v) FBS and maintained at 37° C. with 5% CO2. A549 cells were obtained from the ATCC and were cultured in F-12K Medium containing 10% (v/v) FBS and maintained at 37° C. with 5% CO2. Mino cells were obtained from the ATCC and were cultured in RPMI-1640 Medium containing 10% (v/v) FBS and maintained at 37° C. with 5% CO2. LNCaP cells were obtained from the ATCC and were cultured in RPMI-1640 Medium containing 10% (v/v) FBS and maintained at 37° C. with 5% CO2. Unless otherwise specified, all cell culture materials were purchased from Gibco. It is not known whether HEK293T cells are from male or female origin.
(§2) Cells were washed twice with cold PBS, scraped, and pelleted by centrifugation (700 g, 5 min, 4° C.). Pellets were resuspended in PBS, sonicated, clarified by centrifugation (12,000 g, 10 min, 4° C.), and lysate was transferred to new low-adhesion microcentrifuge tubes. Proteome concentrations were determined using BCA assay and lysate was diluted to appropriate working concentrations.
(§3) Proteins were resolved by SDS/PAGE and transferred to nitrocellulose membranes using the Trans-Blot Turbo transfer system (Bio-Rad). Membranes were blocked with 5% BSA in Tris-buffered saline containing Tween 20 (TBS-T) solution for 30 min at RT, washed in TBS-T, and probed with primary antibody diluted in recommended diluent per manufacturer overnight at 4° C. After 3 washes with TBS-T, the membranes were incubated in the dark with IR680- or IR800-conjugated secondary antibodies at 1:10,000 dilution in 5% BSA in TBS-T at RT for 1 h. After 3 additional washes with TBST, blots were visualized using an Odyssey Li-Cor fluorescent scanner. The membranes were stripped using ReBlot Plus Strong Antibody Stripping Solution (EMD Millipore) when additional primary antibody incubations were performed. Antibodies used in this study were CDK4 (Abcam ab108357), Vinculin (Abcam ab129002), GAPDH (Cell Signaling Technology 14C10), RNF126 (Santa Cruz Biotechnology sc-376005), BRD4 (Abcam ab128874), Beta Actin (Cell Signaling Technology 13E5), PDE5 (Abcam ab259945), AR-V7 (Abcam ab273500), c-Abl (Santa Cruz Biotechnology sc-23), SMARCA2 (Abcam ab240648), LRRK2 (Abcam ab133474), BTK (Cell Signaling Technology D3H5), Androgen Receptor (Abcam ab133273).
For orientation: In western blotting, separated proteins are transferred to a membrane and probed.

For assay [2], the target named is T2, pure RNF126 protein (Homo sapiens, UniProt Q9BV68).
T2 construct: FLAG (C); host or cells: HEK293T
T2 sequence (Q9BV68 whole entry): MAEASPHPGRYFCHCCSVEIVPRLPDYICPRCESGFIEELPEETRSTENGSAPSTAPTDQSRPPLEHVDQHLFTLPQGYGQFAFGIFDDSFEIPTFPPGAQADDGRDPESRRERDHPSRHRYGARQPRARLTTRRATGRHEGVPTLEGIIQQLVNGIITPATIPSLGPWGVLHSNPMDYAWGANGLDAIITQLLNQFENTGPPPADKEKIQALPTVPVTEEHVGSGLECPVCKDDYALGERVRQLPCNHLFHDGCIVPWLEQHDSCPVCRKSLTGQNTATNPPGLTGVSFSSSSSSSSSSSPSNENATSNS
The assay can be described thus: Mass spectrometry analysis of compound-labeled RNF126 tryptic digests. The assay is classed as binding.

Assay [3] concerns the target T3, SMARCA2 (Homo sapiens, UniProt P51531).
T3 construct: endogenous in cells; host or cells: MV-4-11
Nature of the assay: SMARCA2 Degradation assay, Western blotting. The assay is classed as cell-based. On the procedure:
as §1, §2
Proteins were resolved by SDS/PAGE and transferred to nitrocellulose membranes using the Trans-Blot Turbo transfer system (Bio-Rad). […]

The target in assay [4] is T4, Recombinant RNF126 (Homo sapiens, UniProt Q9BV68).
T4 construct: FLAG (C); host or cells: HEK293T
T4 sequence (Q9BV68 whole entry): as above
The assay can be described thus: RNF126 Binding Assay, gel-based ABPP. On the procedure: RNF126 mammalian expression plasmid with a C-terminal FLAG tag was purchased from Origene (Origene Technologies Inc., RC204986). The plasmid was transformed into NEB 5-alpha Competent E. coli (DH5) cells (NEB product no. C2987H). The following day, a single transformed colony was used to inoculate 50 ml of nutrient rich LB medium containing kanamycin (50 μg/ml) and was incubated at 37° C. overnight, with agitation (250 rpm). A Miniprep (Qiagen) kit was used to isolate the plasmid before sequence verification with appropriate primers.
HEK293T cells were grown to 30-50% confluency in DMEM supplemented with 10% FBS (Corning) and maintained at 37° C. with 5% CO2. Immediately before transfection, media was replaced with DMEM containing 5% FBS. Each plate was transfected with 24 μg of overexpression plasmid with 24 μL Lipofectamine 3000 (Invitrogen) in Opti-MEM. After 48 h cells were collected in PBS, lysed by sonication, and batch bound with anti-DYKDDDDK resin (GenScript, L00432) for 2 hours. Lysate and resin were washed with PBS and eluted with 133.33 μg/ml 3×FLAG peptide (ApexBio, A6001) in PBS. Five elutions were performed for 15 minutes each. Elutions were concentrated and the protein was stored in PBS. Concentration and purity was determined using the BCA assay and western blotting.
Recombinant RNF126 ([…]) was pre-treated with either DMSO vehicle or covalent ligand at 37° C. for 30 min in 25 μL of PBS, and subsequently treated with of IA-Rhodamine (concentrations designated in figure legends) (Setareh Biotech) at room temperature for 1 h in the dark. The reaction was stopped by addition of 4×reducing Laemmli SDS sample loading buffer (Alfa Aesar). After boiling at 95° C. for 5 min, the samples were separated on precast 4-20% Criterion TGX gels (Bio-Rad). Probe-labeled proteins were analyzed by in-gel fluorescence using a ChemiDoc MP (Bio-Rad).

The test system of assay [5] is Androgen Receptor. The assay can be described thus: Androgen Receptor Degradation assay, Western blotting. The assay is classed as cell-based. On the procedure:
as §1, §2, §3

SMILES strings stand for the structures.

One may read the DC50 as the midpoint of the concentration-degradation curve. A lower DC50 goes with a more potent degrader.

T3 sequence (P51531 whole entry): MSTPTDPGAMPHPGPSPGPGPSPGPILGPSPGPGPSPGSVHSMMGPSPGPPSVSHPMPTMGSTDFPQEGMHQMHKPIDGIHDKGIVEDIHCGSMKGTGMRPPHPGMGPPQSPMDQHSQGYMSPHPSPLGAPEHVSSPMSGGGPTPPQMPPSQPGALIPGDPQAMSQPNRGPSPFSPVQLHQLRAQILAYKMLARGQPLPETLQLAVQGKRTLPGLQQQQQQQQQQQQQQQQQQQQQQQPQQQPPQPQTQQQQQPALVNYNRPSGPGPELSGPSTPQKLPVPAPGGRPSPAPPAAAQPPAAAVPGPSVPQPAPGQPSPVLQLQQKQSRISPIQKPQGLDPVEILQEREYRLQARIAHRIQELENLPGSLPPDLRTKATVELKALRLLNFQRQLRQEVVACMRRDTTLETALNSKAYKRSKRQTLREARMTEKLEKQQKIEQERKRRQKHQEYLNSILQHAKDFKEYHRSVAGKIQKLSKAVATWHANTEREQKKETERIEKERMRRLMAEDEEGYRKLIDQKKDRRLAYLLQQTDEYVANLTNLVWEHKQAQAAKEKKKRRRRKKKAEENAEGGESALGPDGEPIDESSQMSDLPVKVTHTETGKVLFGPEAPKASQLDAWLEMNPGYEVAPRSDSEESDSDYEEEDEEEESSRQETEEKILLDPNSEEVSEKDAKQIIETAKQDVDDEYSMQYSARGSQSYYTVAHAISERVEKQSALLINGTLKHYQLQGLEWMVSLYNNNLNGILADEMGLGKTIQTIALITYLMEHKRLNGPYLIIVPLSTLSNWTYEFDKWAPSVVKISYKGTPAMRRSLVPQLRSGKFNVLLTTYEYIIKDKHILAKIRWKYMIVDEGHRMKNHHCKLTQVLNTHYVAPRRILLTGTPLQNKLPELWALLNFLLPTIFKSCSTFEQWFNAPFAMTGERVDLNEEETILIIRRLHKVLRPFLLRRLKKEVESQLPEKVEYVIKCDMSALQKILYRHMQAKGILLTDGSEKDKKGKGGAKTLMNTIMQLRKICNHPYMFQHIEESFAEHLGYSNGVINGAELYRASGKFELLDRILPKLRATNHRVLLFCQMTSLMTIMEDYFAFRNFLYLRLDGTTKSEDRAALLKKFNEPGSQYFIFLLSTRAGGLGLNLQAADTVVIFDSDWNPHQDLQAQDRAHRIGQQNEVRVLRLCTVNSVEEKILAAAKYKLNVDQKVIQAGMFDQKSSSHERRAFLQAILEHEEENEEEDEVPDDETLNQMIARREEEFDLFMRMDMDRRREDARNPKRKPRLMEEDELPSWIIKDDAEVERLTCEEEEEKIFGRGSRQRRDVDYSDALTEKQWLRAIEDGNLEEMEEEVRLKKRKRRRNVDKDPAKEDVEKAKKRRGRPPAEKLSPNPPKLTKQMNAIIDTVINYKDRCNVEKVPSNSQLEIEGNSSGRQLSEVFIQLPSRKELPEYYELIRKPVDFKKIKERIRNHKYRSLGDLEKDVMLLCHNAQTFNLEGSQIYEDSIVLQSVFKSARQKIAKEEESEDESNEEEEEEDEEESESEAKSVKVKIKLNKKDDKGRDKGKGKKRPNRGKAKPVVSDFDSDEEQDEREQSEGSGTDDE

As for `COc1ccc(C(=O)/C=C/C(=O)N2CCN(c3ccc(Nc4ncc5cc(C(=O)N(C)C)n(C6CCCC6)c5n4)nc3)CC2)cc1` [Compound 113, (E)-7-cyclopentyl-2-((5-(4-(4-(4-methoxyphenyl)-4-oxobut-2-enoyl)piperazin-1-yl)pyridin-2-yl)-amino)-N,N-dimethyl-7H-pyrrolo[2,3-d]pyrimidine-6-carboxamide], the “CDK4 degradation, in words” value in assay [1] is “in a dose-responsive manner”. Besides, in assay [2], the “adduct on RNF126 by mass spectrometry of tryptic digests” value is on record as “reacts with C32 of RNF126”. With `COc1ccc(C(=O)/C=C/C(=O)N2CCN(c3cc(-c4ccccc4O)nnc3N)CC2)cc1` [Compound 128], the “degradation of SMARCA2, in words” value in assay [3] (MV-4-11 leukemia cancer cells) is listed as “degradation of SMARCA2 in MV-4-11 leukemia cancer cells cell in a dose-responsive manner”. Moreover, the “binding to RNF126 (gel-based ABPP), in words” value in assay [4] was “potent binding”. For `COc1ccc(C(=O)/C=C/C(=O)N2CCN(c3ccc(Nc4ncc5c(C)c(C(C)=O)c(=O)n(C6CCCC6)c5n4)nc3)CC2)cc1` [Compound 136], the “CDK4 degradation, in words” value in assay [1] is “capable to degrading CDK4”. Further, in assay [4], the “binding to RNF126 (gel-based ABPP), in words” value is on record as “maintained binding to RNF126”. As to `COc1ccc(C(=O)/C=C/C(=O)N[C@H]2C[C@H](NC(=O)CN3CCN(c4ccc(C(=O)N[C@H]5CC[C@H](Oc6ccc(C#N)c(Cl)c6)CC5)nn4)CC3)C2)cc1` [Compound 200, N-((1r,4r)-4-(3-chloro-4-cyanophenoxy)cyclohexyl)-6-(4-(2-(((1r,3r)-3-((E)-4-(4-methoxyphenyl)-4-oxobut-2-enamido)cyclobutyl)amino)-2-oxoethyl)piperazin-1-yl)pyridazine-3-carboxamide], in assay [5], the 50% degradation concentration (DC50) was above 10 µM.

Consider `COc1ccc(C(=O)/C=C/C(=O)N[C@H]2C[C@H](NC(=O)CN3CCN(c4ccc(C(=O)N[C@H]5CC[C@H](Oc6ccc(C#N)c(Cl)c6)CC5)nn4)CC3)C2)c(F)c1` [Compound 201, N-((1r,4r)-4-(3-chloro-4-cyanophenoxy)cyclohexyl)-6-(4-(2-(((1r,3r)-3-((E)-4-(2-fluoro-4-methoxyphenyl)-4-oxobut-2-enamido)cyclobutyl)amino)-2-oxoethyl)piperazin-1-yl)pyridazine-3-carboxamide], for which the DC50 in assay [5] is above 10 µM. For the molecule `COc1ccc(C(=O)/C=C/C(=O)N(C)CCN(C)c2ccc(Nc3ncc4cc(C(=O)N(C)C)n(C5CCCC5)c4n3)nc2)cc1` [Compound 272, (E)-7-cyclopentyl-2-((5-((2-(4-(4-methoxyphenyl)-N-methyl-4-oxobut-2-enamido)ethyl)(methyl)amino)pyridin-2-yl)amino)-N,N-dimethyl-7H-pyrrolo[2,3-d]pyrimidine-6-carboxamide], the DC50 in assay [1] is above 10 µM. In turn, `COc1ccc(C(=O)/C=C/C(=O)N2CCN(c3ccc(Nc4ncc5cc(C(=O)N(C)C)n(C6CCCC6)c5n4)nc3)C[C@H]2C)cc1` [Compound 273, (R,E)-7-cyclopentyl-2-((5-(4-(4-(4-methoxyphenyl)-4-oxobut-2-enoyl)-3-methylpiperazin-1-yl)pyridin-2-yl)amino)-N,N-dimethyl-7H-pyrrolo[2,3-d]pyrimidine-6-carboxamide] registered a half-maximal degradation concentration (DC50) in assay [1] of 1 to 10 µM. The molecule `COc1ccc(C(=O)/C=C/C(=O)N2CCN(c3ccc(Nc4ncc5cc(C(=O)N(C)C)n(C6CCCC6)c5n4)nc3)[C@@H](C)C2)cc1` [Compound 274, (S,E)-7-cyclopenty1-2-((5-(4-(4-(4-methoxyphenyl)-4-oxobut-2-enoyl)-2-methylpiperazin-1-yl)pyridin-2-yl)amino)-N,N-dimethyl-7H-pyrrolo[2,3-d]pyrimidine-6-carboxamide] showed a DC50 in assay [1] of 1 to 10 µM. Molecule `COc1ccc(C(=O)/C=C/C(=O)N2CCCN(c3ccc(Nc4ncc5cc(C(=O)N(C)C)n(C6CCCC6)c5n4)nc3)CC2)cc1` [Compound 275, (E)-7-cyclopentyl-2-((5-(4-(4-(4-methoxyphenyl)-4-oxobut-2-enoyl)-1,4-diazepan-1-yl)pyridin-2-yl)amino)-N,N-dimethy1-7H-pyrrolo[2,3-d]pyrimidine-6-carboxamide] came in with a DC50 in assay [1] of 1 to 10 µM. On to `COc1ccc(C(=O)/C=C/C(=O)N2CCN(c3ccc(Nc4ncc5cc(C(=O)N(C)C)n(C6CCCC6)c5n4)nc3)C[C@@H]2C)cc1` [Compound 276, (S,E)-7-cyclopentyl-2-((5-(4-(4-(4-methoxyphenyl)-4-oxobut-2-enoyl)-3-methylpiperazin-1-yl)pyridin-2-yl)amino)-N,N-dimethyl-7H-pyrrolo[2,3-d]pyrimidine-6-carboxamide], for which the DC50 in assay [1] was in the range of 1 to 10 µM. In assay [3], `COc1ccc(C(=O)/C=C/C(=O)N[C@H]2C[C@H](NC(=O)CN3CCN(c4cc(-c5ccccc5O)nnc4N)CC3)C2)c(F)c1` [Compound 282, (E)-N-((1r,3r)-3-(2-(4-(3-amino-6-(2-hydroxyphenyl)pyridazin-4-yl)piperazin-1-yl)acetamido)cyclobutyl)-4-(2-fluoro-4-methoxyphenyl)-4-oxobut-2-enamide] gave a DC50 above 5 µM. Same read-out and setting: as for `COc1ccc(C(=O)/C=C/C(=O)N[C@H]2C[C@H](NC(=O)CN3CCN(c4cc(-c5ccccc5O)nnc4N)CC3)C2)cc1` [Compound 283, (E)-N-((1r,3r)-3-(2-(4-(3-amino-6-(2-hydroxyphenyl)pyridazin-4-yl)piperazin-1-yl)acetamido)cyclobutyl)-4-(4-methoxyphenyl)-4-oxobut-2-enamide], the figure is above 5 µM. As to `CN(C)C(=O)c1cc2cnc(Nc3ccc(N4CCN(C(=O)/C=C/C(=O)c5ccc(Br)cc5)CC4)cn3)nc2n1C1CCCC1` [Compound 284, (E)-2-((5-(4-(4-(4-bromophenyl)-4-oxobut-2-enoyl)piperazin-1-yl)pyridin-2-yl)amino)-7-cyclopentyl-N,N-dimethyl-7H-pyrrolo[2,3-d]pyrimidine-6-carboxamide], in assay [1], the DC50 is above 10 µM. Turning to `COc1ccc(C(=O)/C=C/C(=O)N[C@H]2C[C@H](NC(=O)CN3CCN(c4ccc(C(=O)N[C@H]5CC[C@H](Oc6ccc(C#N)c(Cl)c6)CC5)nn4)CC3)C2)c(Cl)c1` [Compound 286, N-((1r,4r)-4-(3-chloro-4-cyanophenoxy)cyclohexyl)-6-(4-(2-(((1r,3r)-3-((E)-4-(2-chloro-4-methoxyphenyl)-4-oxobut-2-enamido)cyclobutyl)amino)-2-oxoethyl)piperazin-1-yl)pyridazine-3-carboxamide], the DC50 in assay [5] was above 10 µM.

The values above are taken from US20260200939A1, “MOLECULAR GLUE DEGRADER COMPOUNDS AND USES THEREOF” (Novartis AG, priority 2022, published 2026).
